How the values were obtained:
ARPE-19 cells = assay: Fluorescent detection of intracellular ROS; type: cell-based, Human; details: 150 μM tBH
Source text: Cells were allowed to adhere overnight. […] Removed and washed cells once with HBSS. […] Each drug concentration was done in triplicates.

rat aorta rings = assay: Rat aortic ring relaxation; details: 10^-6 PE constriction
Source text: Experimental protocol. Equipment used in these studies included a 4-tissue bath system with reservoirs and circulators (RadnotiGlass Technology, Monrovia, Calif.), DSI/Ponemah tissue force analyzer 7700 (Valley View, Ohio), and iWorx/CB Sciencesforce transducers FT-302. The 250 g rats were anesthetized with isoflurane to produce deep anesthesia. The chest of the rat was opened, and about 3 cm length of aorta was removed and placed in a Petri dish containing room temperature Krebs salt solution (KSS, in mM: 120 NaCl, 5 KCl, 1.2 MgSO4.7H20, 2.5 CaCl2.2H2O, 1 KH2PO4, 25 NaHCO3, and 11 glucose). Fat and connective tissue were removed from the aorta taking care not to stretch the vessel. The aorta was then divided into 3-mm-wide rings. Triangular wire holders were inserted through the lumen of the vessel and connected to the force transducer and tissue holder rod in the vessel bath.
Analog-to-digital conversions of force waveforms were accomplished with a DSI/Ponemah tissue force analyzer 7700. The converted data were automatically analyzed with Ponemah Physiology-Smooth Muscle software. All data are summarized as means±standard error. Differences between means were assessed by a conventional ANOVA. This was followed by Student's test. P<0.05 was considered to be statistically significant.
The tension on the rings was adjusted to 1.0 g passive force using the tension adjustment dial for each transducer and allowed to equilibrate for 60 min in the bath with a 95% O2-5% CO2 gas mixture. The rings were washed with fresh buffer every 20 min. Passive force was readjusted to 1.0 g as needed during this period. When rings were stable at 1.0 g of passive force, the baseline was calculated.
Phenylephrine (PE) at a final concentration of […] was added to the bath to contract the ring, and force was allowed to stabilize for 10 min. Then acetylcholine (ACH) at a final concentration of 10^−5 M was added to the precontracted rings to test for endothelial integrity […]. After the initial test for vessel viability and endothelial integrity, the rings were washed three times for 10 min with buffer, allowing it to equilibrate to active force stabilized at 1 g.
Cumulative concentration-response curves to NRBAs were created by increasing the NRBAs concentration in the tissue bath by successive addition of appropriate dilutions of stock solutions to achieve final bath concentrations of 300 nM to 0.15 mM NRBAs.
Table 10 summarizes EC50 values and maximal % decrease of the 10^−6 PE constriction of the aortic ring for individual NRBAs tested

[1] = system: LPS induced THP-1 macrophage cell adhesion to bEND-3 endothelial cells; assay: Macrophage adhesion assay; type: cell-based
Method: To determine the anti-inflammatory effects of ER-β NRBAs in vitro, a macrophage adhesion assay was performed. Macrophages adhere to endothelial cells due to elevated levels of pro-inflammatory cytokines. This principle was used in this assay to determine the effect of one of the ER-NRBAs on bacterial lipopolysaccharide (LPS) induced THP-1 macrophage cell adhesion to bEND-3 endothelial cells.

[2] = molecular target: ERβ ligand binding domain (Homo sapiens, UniProt Q92731); assay: Competitive [3H]-estradiol binding assay, ER-β (Example 21)
Method: (§1) ER binding affinity was determined via one of the following methods:
(§2) Briefly, the incubation mixture was filtered through a high affinity protein binding filter, and washed several times to remove any unbound radioactivity. The filter plate was air dried and sealed on the bottom.
(§3) Nonspecific binding was subtracted from total binding to yield specific binding.

ER-β = ER-β (Rattus norvegicus (Rat), UniProt Q62986); assay: ER-β transactivation (ERE-LUC) in COS or 293 cells; type: cell-based
[3] = molecular target: ERα ligand binding domain (Homo sapiens, UniProt P03372); assay: Competitive [3H]-estradiol binding assay, ER-α (Example 21); details: 100 nM of compound; read-out: Percent Inhibition of [3H]-Estradiol Binding to ER-α
Method: as §1, §2, §3

ER-α = ER-α (Rattus norvegicus (Rat), UniProt P06211); type: cell-based
Method: COS or 293 cells were plated in DME without phenol red+10% cs FBS at 90,000 cells per well in 24 well plates, and were transfected with 0.25 μg of the vector “ERE-LUC”, where a firefly luciferase gene was driven by two estrogen responsive elements and 0.02 μg of the control CMV-LUC, Renilla where a luciferase gene was driven by a CMV promoter. […] All the receptors were cloned from rat tissue into the PCR3.1 vector backbone. Twenty four hours post transfection, cells were treated with compounds of this invention, estrogen, DHT, and other NRBAs or combinations thereof. Cells were harvested 48 hrs after transfection, and assayed for firefly and Renilla luciferase activity.

[4] = system: Ang II induced cardiac fibrosis; assay: Angiotensin II model, cardiac fibrosis; type: in vivo, ovariectomized C57/BJ6 and ERβKO mice
Method: (§4) Thirty, ten week old female ovariectomized C57/BJ6 mice, were obtained from Harlan/Sprague Dawley and were housed in 12 hour on/off lighting and fed rodent chow devoid of soy or most plant products. Ovariectomized ERβKO mice were obtained from Ken Korach, NIEHS. The ERβ mice were originally created by Drs. Smithies, Gustafsson, and colleagues. All mice were identically housed and fed the same chow.
(§5) This pellet is well documented to produce physiological levels of E2 in the serum of mice.
Left ventricular tissues were fixed in 4% paraformaldehyde solution. Paraffin-embedded tissue sections (5 um) were stained with Masson's trichrome for the presence of interstitial collagen fiber accumulation indicative of cardiac fibrosis. The ratio of interstitial fibrosis to the total left ventricular area was calculated from 10 randomly selected microscopic fields from each of five sections per heart using NIH imageJ analysis software (n=5 mice per condition). Further quantification of collagen deposition was made by ventricular content of hydroxyproline, a breakdown product of collagen, determined by a modified method of Bergman and Loxley (19). The ventricular tissues were homogenized and hydrolyzed in 6 N HCl at 110° C. for 24 h in a sealed reaction vial. The sample was dried and the residue re-suspended in sterile water. 0.5 ml of chloramine T was added for 5 min, then Ehrlich's reagent (3 ml) was added and the mixture left for 18 h at room temperature. The intensity of the red coloration that developed was measured by a spectrophotometer at 558 nm.

[5] = system: Rat Aortic Smooth Muscle Cells (RASMC); assay: RASMC cell proliferation assay (WST-1); type: cell-based; details: Rattus norvegicus, read-out: EC50 for inhibition of RASMC proliferation
Method: EC50 values were calculated using WinNonLin 5.0.1 using the inhibitory effect sigmoid Emax model.

[6] = system: Ang II induced left ventricular hypertrophy; assay: Angiotensin II model, cardiac hypertrophy; type: in vivo, ovariectomized C57/BJ6 and ERβKO mice; details: 21 days
Method: as §4, §5
At inception and after 21 days, the mice were weighed. Blood pressure was measured 4 times during the 21-day period, using the CODA non-invasive blood pressure measuring system. At 21 days the hearts were stopped in diastole by CdCl2 administration. The hearts were removed and weighed and the ratio of heart per total body weight was determined. Next, the hearts were dissected and the left ventricles were weighed and the ratio of left ventricle per total body weight was determined. […] For comparison ERβ gene-deleted mice were subjected to the same conditions of Ang II±E2 or the 12u compound. For histology, the hearts were and sectioned, and stained with hematoxylin and eosin, or Masson stain (for collagen)

[7] = system: Ang II induced hypertension; assay: Angiotensin II model, blood pressure; type: in vivo, ovariectomized C57/BJ6 and ERβKO mice; set-up: Systolic pressure / Diastolic pressure: unit: mmHg; details: for Diastolic pressure / Systolic pressure: Ang II
Method: as §4, with “ERβ gene-deleted (ERβKO or ERβ-KO)” for “ERβKO”
as §5
Blood pressure was measured 4 times during the 21-day period, using the CODA non-invasive blood pressure measuring system (Kent Scientific, Torrington, Conn.). Measurements were done by volume pressure recordings of the tail.

SHP promoter = assay: SHP promoter-luciferase assay in HEK-293 cells; type: cell-based
Method: FIG. 12 depicts the effect of ER-β ligand on PPAR-γ function through ligand binding domain (LBD). (A). HEK-293 cells were transfected with 0.25 μg PPRE-LUC, 5 ng CMV-renilla LUC and the indicated receptors (PPAR-γ and ER-β for the left panel and PPAR-α and ER-β for the right panel). The cells were treated 24 hrs after transfection with the indicated ligands and harvested 48 hrs after transfection and firefly luciferase activity was measured and normalized to renilla luciferase. (B). H475 in ER-β LBD is important for its function. H475 in ER-β LBD was mutated to alanine (A) using a site directed mutagenesis kit. Transactivation assay was performed as described in panel A in HEK-293 cells with a titration of ER-β ligands in wild type (WT) or ER-β H475A. (C). […] HEK-293 cells were transfected with 0.25 μg PPRE-LUC, 5 ng CMV-renilla LUC and 50 ng of the indicated receptors (PPAR-γ or PPAR-γ and wild type ER-β or PPAR-γ and ER-β H475A). The cells were treated 24 hrs after transfection with the indicated ligands and harvested 48 hrs after transfection and firefly luciferase activity was measured and normalized to renilla luciferase. (D). […] HepG2 cells were transfected with 0.25 μg PPRE-LUC, 5 ng CMV-renilla LUC, 0.5 μg PGC-1 or vector backbone and 100 ng of the indicated receptors (PPAR-γ or PPAR-γ and wild type ER-β or PPAR-γ and ER-β H475A for top panels and PPAR-α or PPAR-α and ER-β for bottom panel). The cells were treated 24 hrs after transfection with the indicated ligands and harvested 48 hrs after transfection and firefly luciferase activity was measured and normalized to renilla luciferase. (E). SHP-1 is an ER-β specific target gene. HEK-293 cells were transfected with 0.25 μg SHP-LUC, 5 ng CMV-renilla LUC and 50 ng of the indicated receptors (FXR and ER-α for the left panel and FXR and ER-β for the right panel). The cells were treated 24 hrs after transfection with the indicated ligands and harvested 48 hrs after transfection and firefly luciferase activity was measured and normalized to renilla luciferase. PPAR—peroxisome proliferator and activated receptor; ER—estrogen receptor; H—histidine; A—alanine; RLU—relative luciferase units; Tro—troglitazone; PGC-1—PPAR-γ coactivator; SHP—small heterodimer partner; FXR—farsenoid X receptor.
Human estrogen receptors (ER-α and ER-β) were cloned from prostate cDNA into a pCR3.1 plasmid vector backbone. PGC-1 was cloned into mammalian two hybrid vector pACT. ER-β H475 was mutated to alanine using site-directed mutagenesis. Sequencing was performed to determine the absence of any non specific mutations. SHP promoter (−572 to +10) (26) was cloned into pGL3 basic LUC reporter vector and human FXR was cloned into pCR3.1. […]

Chain of ERβ ligand binding domain (Q92731 whole entry, looked up, the tested form may be a part): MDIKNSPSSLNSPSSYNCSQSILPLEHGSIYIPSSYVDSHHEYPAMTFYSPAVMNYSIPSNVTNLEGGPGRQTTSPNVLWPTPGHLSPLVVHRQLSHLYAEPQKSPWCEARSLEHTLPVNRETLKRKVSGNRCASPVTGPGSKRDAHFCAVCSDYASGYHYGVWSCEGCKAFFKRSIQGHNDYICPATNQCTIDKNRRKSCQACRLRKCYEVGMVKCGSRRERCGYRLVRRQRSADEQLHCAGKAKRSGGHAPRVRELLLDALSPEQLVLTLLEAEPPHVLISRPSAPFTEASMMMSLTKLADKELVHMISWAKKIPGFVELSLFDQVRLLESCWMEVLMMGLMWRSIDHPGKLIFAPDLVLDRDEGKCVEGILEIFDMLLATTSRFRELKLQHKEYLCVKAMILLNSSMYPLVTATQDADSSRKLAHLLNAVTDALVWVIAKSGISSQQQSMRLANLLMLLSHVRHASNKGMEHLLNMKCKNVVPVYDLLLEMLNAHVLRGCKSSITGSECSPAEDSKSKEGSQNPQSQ
Chain of ER-β (Q62986 whole entry, the tested form may be a part): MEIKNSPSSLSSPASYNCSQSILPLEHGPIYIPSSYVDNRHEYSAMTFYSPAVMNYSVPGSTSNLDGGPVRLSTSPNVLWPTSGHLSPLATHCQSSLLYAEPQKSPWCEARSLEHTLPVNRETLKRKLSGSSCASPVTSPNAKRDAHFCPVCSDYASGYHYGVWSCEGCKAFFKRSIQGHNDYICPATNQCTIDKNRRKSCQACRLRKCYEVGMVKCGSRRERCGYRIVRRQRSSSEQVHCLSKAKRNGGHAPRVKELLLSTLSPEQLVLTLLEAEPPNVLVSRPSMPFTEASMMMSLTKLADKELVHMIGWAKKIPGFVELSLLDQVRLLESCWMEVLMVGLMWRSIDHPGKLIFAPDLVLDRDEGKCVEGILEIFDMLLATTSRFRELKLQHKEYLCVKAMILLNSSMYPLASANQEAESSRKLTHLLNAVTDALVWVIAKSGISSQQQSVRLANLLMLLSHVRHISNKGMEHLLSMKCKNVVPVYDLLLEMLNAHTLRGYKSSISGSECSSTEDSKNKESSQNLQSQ
Chain of ERα ligand binding domain (P03372 whole entry, looked up, the tested form may be a part): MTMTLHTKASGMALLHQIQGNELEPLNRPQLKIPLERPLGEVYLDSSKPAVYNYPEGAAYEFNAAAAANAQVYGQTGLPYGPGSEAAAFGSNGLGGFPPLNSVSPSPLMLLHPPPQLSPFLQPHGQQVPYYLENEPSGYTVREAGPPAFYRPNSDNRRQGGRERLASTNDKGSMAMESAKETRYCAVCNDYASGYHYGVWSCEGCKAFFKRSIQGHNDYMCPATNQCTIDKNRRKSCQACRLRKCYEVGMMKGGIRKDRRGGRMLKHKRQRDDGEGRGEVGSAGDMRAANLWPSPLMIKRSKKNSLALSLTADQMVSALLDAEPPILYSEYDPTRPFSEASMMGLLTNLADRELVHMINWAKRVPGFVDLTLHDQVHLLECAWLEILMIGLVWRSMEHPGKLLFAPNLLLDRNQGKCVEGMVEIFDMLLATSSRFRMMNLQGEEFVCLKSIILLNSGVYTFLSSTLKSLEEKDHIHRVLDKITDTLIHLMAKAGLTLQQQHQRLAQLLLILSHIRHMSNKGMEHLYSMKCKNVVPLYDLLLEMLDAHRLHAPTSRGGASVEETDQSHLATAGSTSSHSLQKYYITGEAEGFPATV

**Q.** Which results are given for `O=c1c2c(O)cc(O)cc2c(Cl)cn1-c1ccc(O)cc1` [12y, 4-chloro-6,8-dihydroxy-2-(4-hydroxyphenyl)isoquinolin-1(2H)-one]?
**A.** Inhibition of ROS formation (ARPE-19 cells): more than 50%; Prevention of ROS formation / oxidative stress (ARPE-19 cells): protected ARPE-19 cells from oxidative damage; Mean of Maximal % Decrease of the PE constriction of the aortic ring (rat aorta rings): 80.63%; EC50 (rat aorta rings; Rattus norvegicus): 13.2 µM; Adhesion of 3H labeled THP-1 cells to bEND-3 cells [1]: significantly inhibited; Ki Ratio (ER-α/ER-β) [2]: 11; inhibition at 0.1 µM ([2]; read-out: Percent Inhibition of [3H]-Estradiol Binding to ER-β): 97.5%; ER-β agonist activity (ER-β): ER-β agonist activity; inhibition at 0.1 µM [3]: 51.9%; Classification as ER-α agonist (ER-α): ER-α agonists

**Q.** How did the “Reduction in ROS formation” value (ARPE-19 cells; 100 nM) turn out when `C[C@]12CC[C@@H]3c4ccc(O)cc4CC[C@H]3[C@@H]1CC[C@@H]2O` [Estradiol, reference compound] was run?
**A.** approximately 30%

**Q.** What about the Ventricular hydroxyproline content ([4]; WT mice, not ERβKO) of the same compound?
**A.** significantly inhibited the hydroxyproline content

**Q.** What about the “Ang II induced cardiac fibrosis (interstitial collagen)” value ([4]; only in WT mice) of the same compound?
**A.** significantly inhibited fibrosis

**Q.** And the EC50 [5]?
**A.** 36.4 µM

**Q.** What about the “Ang II induced increase in heart size and total heart weight” value [6] of the same compound?
**A.** prevented the increased size

**Q.** What about the “Ang II induced left ventricular hypertrophy (LVW/BW)” value ([6]; wildtype but not ERβKO mice) of the same compound?
**A.** largely prevented

**Q.** And the “Ang II induced hypertension, diastolic pressure” value ([7]; ERβ-KO mice, 21 days)?
**A.** unchanged

**Q.** What about the “Ang II induced hypertension, systolic pressure” value ([7]; ERβ-KO mice, 21 days) of the same compound?
**A.** mildly reduced

**Q.** And the Diastolic pressure ([7]; ERβKO, 7 days)?
**A.** 95

**Q.** What about the Systolic pressure ([7]; ERβKO, 7 days) of the same compound?
**A.** 149

**Q.** What about the Diastolic pressure ([7]; ERβKO, 14 days) of the same compound?
**A.** 98

**Q.** What about the Systolic pressure ([7]; ERβKO, 14 days) of the same compound?
**A.** 143

**Q.** And the Diastolic pressure ([7]; ERβKO, 21 days)?
**A.** 96

**Q.** And the Systolic pressure ([7]; ERβKO, 21 days)?
**A.** 145

**Q.** What about the Diastolic pressure ([7]; ERβKO, time 0) of the same compound?
**A.** 86

**Q.** And the Systolic pressure ([7]; ERβKO, time 0)?
**A.** 126

**Q.** What about the Diastolic pressure ([7]; WT, 7 days) of the same compound?
**A.** 82

**Q.** And the Systolic pressure ([7]; WT, 7 days)?
**A.** 121

**Q.** What about the Diastolic pressure ([7]; WT, 14 days) of the same compound?
**A.** 86

**Q.** What about the Systolic pressure ([7]; WT, 14 days) of the same compound?
**A.** 124

**Q.** And the Diastolic pressure ([7]; WT, 21 days)?
**A.** 88

**Q.** And the Systolic pressure ([7]; WT, 21 days)?
**A.** 131

**Q.** And the Diastolic pressure ([7]; WT, time 0)?
**A.** 85

**Q.** And the Systolic pressure ([7]; WT, time 0)?
**A.** 123

**Q.** And the “Ang II induced hypertension” value ([7]; wildtype mice, 21 days)?
**A.** largely prevented

**Q.** What about the “ER-β RLU/RenRLU” value (ER-β; dose 1 nM) of the same compound?
**A.** 0.48 RLU/RenRLU

**Q.** For `CCCc1c(-c2ccc(O)cc2)nn(-c2ccc(O)cc2)c1-c1ccc(O)cc1` [PPT, 1,3,5-tris(4-hydroxyphenyl)-4-propyl-1H-pyrazole, reference compound], which SHP promoter activity (SHP promoter; transfected with FXR and ER-α) is on record?
**A.** increased SHP activity

**Q.** With `CC(C)c1onc(-c2c(Cl)cccc2Cl)c1COc1ccc(/C=C/c2cccc(C(=O)O)c2)c(Cl)c1` [GW4064, reference compound] as the compound, how does the SHP promoter activity (SHP promoter; transfected with FXR and ER-β) read?
**A.** increased its activity significantly

Reference: patent US9604931B2, “Nuclear receptor binding agents” (GTx, Inc., priority 2007, dated 2017)
